pIC50: −log10 of the molar value.
Each compound was assayed on acetylated tubulin (Lys40) in HeLa cells (assay: Acetylated α-tubulin measurement in vitro (immunocytochemistry)). Conditions: Homo sapiens, 6 hours incubation, acetylated tubulin (Lys40) by immunocytochemistry, read-out: IC50 (Tubulin deacetylation).
Assay type: cell-based
Method: HeLa cells were cultured in UltraCulture serum-free medium (Lonza) supplemented with 2 mM glutamine (Lonza). Assays were performed at 96-well or 384-well format, differences in assay protocols are detailed in Table 6. Cells per well were plated and incubated overnight at 37° C. overnight in a humidified atmosphere containing 5% CO2. Cell density and seeding volumes are detailed in Table 6. Compounds (dissolved in 100% DMSO) or DMSO (vehicle) were added manually by diluting them in culture medium at 10× final assay concentration and adding 10 μL to cells (96-well protocol). Alternatively, 50 nL compound was added directly to the cell culture using the Echo650 (Labcyte) (384-well protocol). In this assay, the final assay concentration of DMSO is 0.1%-0.4%. Trichostatin A (TSA) was used as a positive control. Cells were incubated with compounds at 37° C. in a humidified atmosphere containing 5% CO2 for 6 hours. Levels of acetylated tubulin (Lys40) were assessed by immunocytochemistry using target-specific antibodies. Cells were fixed with 4% PFA at RT as detailed in Table 6. After 2-3 wash steps with PBS, cells were permeabilized with 0.5% Triton in PBS at RT for 10 minutes followed by 1-2 washes with PBS. To avoid non-specific antibody staining, cells were blocked with 3% BSA in PBS at room temperature for 1 hour. […] Cells were washed 2-3 times with PBS and labelled for 1 h at RT with goat anti-mouse conjugated with Alexa 647 (Thermofisher) and goat anti-rabbit conjugated with Alexa 555 (Thermofisher) secondary antibodies, diluted in 1% BSA to a final concentration of 1:1000. Simultaneously, nuclei were stained with 1:10000-1:15000 Hoechst (Thermofisher). Incubation time and temperature of the primary antibodies are detailed in Table 6. Cells were washed 2-3 times with PBS and they were imaged with the Operetta CLS or Opera Phenix (PerkinElmer). Imaging is further detailed in Table 6. For imaging analysis, the Harmony analysis software (PerkinElmer) was used. Cytoplasmic (defined by total α-tubulin staining) intensities per well were used for α-tubulin (acetylated and total) quantification. Intensities were measured per cell and then averaged per well. Mean intensity levels of acetylated tubulin were normalized to the mean intensity levels of total tubulin. The changes in acetylated tubulin were normalized for each plate using GraphPad Prism software: tubulin acetylation in vehicle (DMSO)-treated cells were set to 0% while tubulin acetylation in TSA-treated cells were set to 100%. EC50 values were calculated using the log(inhibitor) vs. response—Variable slope (four parameters) nonlinear regression in GraphPad Prism software.

| SMILES | pIC50 |
| --- | --- |
| CC(NC(=O)CO)c1ccc(C(=O)CSc2nc3cnc(C(F)(F)F)cc3o2)s1 (stereo in doubt) [Example 129, (S)-2-hydroxy-N-(1-(5-(2-((6-(trifluoromethyl)oxazolo[4,5-c]pyridin-2-yl)thio)acetyl)thiophen-2-yl)ethyl)acetamide] | 6.30 to 7.00 |
| O=C(CSc1nc(C(F)(F)F)nc2ncccc12)c1ccc(CN2CCC(O)C2=O)s1 (stereo in doubt) [Example 155, (S)-3-hydroxy-1-((5-(2-((2-(trifluoromethyl)pyrido[2,3-d]pyrimidin-4-yl)thio)acetyl)thiophen-2-yl)methyl)pyrrolidin-2-one] | ≥ 7.00 |
| O=C(CSc1nc(C(F)(F)F)nc2ncccc12)c1ccc(CN2CCC(O)C2=O)s1 (stereo in doubt) [Example 156, (R)-3-hydroxy-1-((5-(2-((2-(trifluoromethyl)pyrido[2,3-d]pyrimidin-4-yl)thio)acetyl)thiophen-2-yl)methyl)pyrrolidin-2-one] | ≥ 7.00 |
| Cc1nc(SCC(=O)c2ccc(CNC(=O)C(C)(C)C)s2)c2cnn(C)c2n1 [Example 5, N-((5-(2-((1,6-dimethyl-1H-pyrazolo[3,4-d]pyrimidin-4-yl)thio)acetyl)thiophen-2-yl)methyl)pivalamide] | < 5.48 |
| Cc1nc(SCC(=O)c2ccc(CNC(=O)C(C)(C)C)s2)c2cccnc2n1 [Example 7, N-((5-(2-((2-methylpyrido[2,3-d]pyrimidin-4-yl)thio)acetyl)thiophen-2-yl)methyl)pivalamide] | 6.30 to 7.00 |
| Cc1nc(SCC(=O)c2ccc(CNC(=O)C(C)(C)C)s2)c2ccc(Cl)cc2n1 [Example 8, N-((5-(2-((7-chloro-2-methylquinazolin-4-yl)thio)acetyl)thiophen-2-yl)methyl)pivalamide] | < 5.48 |
| Cc1nc(SCC(=O)c2ccc(CNC(=O)C(C)(C)C)s2)c2cc(F)ccc2n1 [Example 9, N-((5-(2-((6-fluoro-2-methylquinazolin-4-yl)thio)acetyl)thiophen-2-yl)methyl)pivalamide] | 5.48 to 6.00 |
| Cc1nc(SCC(=O)c2ccc(CNC(=O)C(C)(C)C)s2)c2ccc(F)cc2n1 [Example 10, N-((5-(2-((7-fluoro-2-methylquinazolin-4-yl)thio)acetyl)thiophen-2-yl)methyl)pivalamide] | 5.48 to 6.00 |
| COc1ccc2c(SCC(=O)c3ccc(CNC(=O)C(C)(C)C)s3)nc(C)nc2c1 [Example 12, N-((5-(2-((7-methoxy-2-methylquinazolin-4-yl)thio)acetyl)thiophen-2-yl)methyl)pivalamide] | 5.48 to 6.00 |
| CN(C)c1nc(SCC(=O)c2ccc(CNC(=O)C(C)(C)C)s2)c2ccccc2n1 [Example 16, N-((5-(2-((2-(dimethylamino)quinazolin-4-yl)thio)acetyl)thiophen-2-yl)methyl)pivalamide] | 5.48 to 6.00 |
| COc1ccc2nc(C)nc(SCC(=O)c3ccc(CNC(=O)C(C)(C)C)s3)c2c1 [Example 17, N-((5-(2-((6-methoxy-2-methylquinazolin-4-yl)thio)acetyl)thiophen-2-yl)methyl)pivalamide] | 6.00 to 6.30 |
| Cc1nc(SCC(=O)c2ccc(CNC(=O)C(C)(C)C)s2)c2ncccc2n1 [Example 18, N-((5-(2-((2-methylpyrido[3,2-d]pyrimidin-4-yl)thio)acetyl)thiophen-2-yl)methyl)pivalamide] | 5.48 to 6.00 |
| CC(C)(C)C(=O)NCc1ccc(C(=O)CSc2nc(C(F)F)nc3ccccc23)s1 [Example 19, N-((5-(2-((2-(difluoromethyl)quinazolin-4-yl)thio)acetyl)thiophen-2-yl)methyl)pivalamide] | 5.48 to 6.00 |
| Cn1ncc2c(SCC(=O)c3ccc(CNC(=O)C(C)(C)C)s3)nc(C(F)(F)F)nc21 [Example 20, N-((5-(2-((1-methyl-6-(trifluoromethyl)-1H-pyrazolo[3,4-d]pyrimidin-4-yl)thio)acetyl)thiophen-2-yl)methyl)pivalamide] | 6.30 to 7.00 |
| Cn1ncc2c(SCC(=O)c3ccc(CNC(=O)C(C)(C)C)s3)nc(C(F)F)nc21 [Example 21, N-((5-(2-((6-(difluoromethyl)-1-methyl-1H-pyrazolo[3,4-d]pyrimidin-4-yl)thio)acetyl)thiophen-2-yl)methyl)pivalamide] | 5.48 to 6.00 |
| Cn1cc2c(SCC(=O)c3ccc(CNC(=O)C(C)(C)C)s3)nc(C(F)(F)F)nc2n1 [Example 22, N-((5-(2-((2-methyl-6-(trifluoromethyl)-2H-pyrazolo[3,4-d]pyrimidin-4-yl)thio)acetyl)thiophen-2-yl)methyl)pivalamide] | 6.30 to 7.00 |
| Cc1ccc2oc(SCC(=O)c3ccc(CNC(=O)C(C)(C)C)s3)nc2n1 [Example 23, N-((5-(2-((5-methyloxazolo[4,5-b]pyridine-2-yl)thio)acetyl)thiophen-2-yl)methyl)pivalamide] | 6.00 to 6.30 |
| Cn1ncc2c(SCC(=O)c3ccc(CN4CCCC4=O)s3)ncnc21 [Example 25, 1-((5-(2-((1-methyl-1H-pyrazolo[3,4-d]pyrimidin-4-yl)thio)acetyl)thiophen-2-yl)methyl)pyrrolidin-2-one] | < 5.48 |
| Cn1ncc2c(SCC(=O)c3ncc(CNC(=O)C(C)(C)C)s3)ncnc21 [Example 27, N-((2-(2-((1-methyl-1H-pyrazolo[3,4-d]pyrimidin-4-yl)thio)acetyl)thiazol-5-yl)methyl)pivalamide] | 5.48 to 6.00 |
| Cn1ncc2c(SCC(=O)c3cc(F)c(CNC(=O)C(C)(C)C)s3)ncnc21 [Example 28, N-((3-fluoro-5-(2-((1-methyl-1H-pyrazolo[3,4-d]pyrimidin-4-yl)thio)acetyl)thiophen-2-yl)methyl)pivalamide] | 5.48 to 6.00 |
| Cn1ncc2c(SCC(=O)c3ccc(CNC(=O)c4ccccc4)s3)ncnc21 [Example 30, N-((5-(2-((1-methyl-1H-pyrazolo[3,4-d]pyrimidin-4-yl)thio)acetyl)thiophen-2-yl)methyl)benzamide] | 5.48 to 6.00 |
| Cn1ncc2c(SCC(=O)c3ccc(CNC(=O)C4CC4)s3)ncnc21 [Example 31, N-((5-(2-((1-methyl-1H-pyrazolo[3,4-d]pyrimidin-4-yl)thio)acetyl)thiophen-2-yl)methyl)cyclopropanecarboxamide] | 5.48 to 6.00 |
| CN(Cc1ccc(C(=O)CSc2ncnc3c2cnn3C)s1)C(=O)C1CC1 [Example 34, N-methyl-N-((5-(2-((1-methyl-1H-pyrazolo[3,4-d]pyrimidin-4-yl)thio)acetyl)thiophen-2-yl)methyl)cyclopropanecarboxamide] | 5.48 to 6.00 |
| O=C(CSc1nc(C(F)(F)F)nc2ccccc12)c1ccc(CCNC(=O)C2CC2)s1 [Example 36, N-(2-(5-(2-((2-(trifluoromethyl)quinazolin-4-yl)thio)acetyl)thiophen-2-yl)ethyl)cyclopropanecarboxamide] | < 5.48 |
| CC(C)(C)C(=O)NCc1ccc(C(=O)CSc2nc(C(F)(F)F)nc3ccccc23)s1 [Example 38, N-((5-(2-((2-(trifluoromethyl)quinazolin-4-yl)thio)acetyl)thiophen-2-yl)methyl)pivalamide] | 6.00 to 6.30 |
| COc1ccc2nc(C)nc(SCC(=O)c3ccc(CNC(=O)C4CC4(F)F)s3)c2c1 (stereo not drawn) [Example 39, 2,2-difluoro-N-((5-(2-((6-methoxy-2-methylquinazolin-4-yl)thio)acetyl)thiophen-2-yl)methyl)cyclopropane-1-carboxamide] | 6.00 to 6.30 |
| COc1ccc2nc(C)nc(SCC(=O)c3ccc(CNC(=O)C(F)(F)C(F)(F)F)s3)c2c1 [Example 40, 2,2,3,3,3-pentafluoro-N-((5-(2-((6-methoxy-2-methylquinazolin-4-yl)thio)acetyl)thiophen-2-yl)methyl)propanamide] | 6.00 to 6.30 |
| Cn1cc2c(SCC(=O)c3ccc(CNC(=O)C4CC4)s3)nc(C(F)(F)F)nc2n1 [Example 41, N-((5-(2-((2-methyl-6-(trifluoromethyl)-2H-pyrazolo[3,4-d]pyrimidin-4-yl)thio)acetyl)thiophen-2-yl)methyl)cyclopropanecarboxamide] | 5.48 to 6.00 |
| O=C(CSc1nc(C(F)(F)F)nc2nn(C3CC3)cc12)c1ccc(CNC(=O)C2CC2(F)F)s1 (stereo not drawn) [Example 43, N-((5-(2-((2-cyclopropyl-6-(trifluoromethyl)-2H-pyrazolo[3,4-d]pyrimidin-4-yl)thio)acetyl)thiophen-2-yl)methyl)-2,2-difluorocyclopropane-1-carboxamide] | 6.30 to 7.00 |
| O=C(CSc1nc(C(F)(F)F)nc2nn(C3CC3)cc12)c1ccc(CNC(=O)C(F)(F)C(F)(F)F)s1 [Example 44, N-((5-(2-((2-cyclopropyl-6-(trifluoromethyl)-2H-pyrazolo[3,4-d]pyrimidin-4-yl)thio)acetyl)thiophen-2-yl)methyl)-2,2,3,3,3-pentafluoropropanamide] | 6.30 to 7.00 |

Source: patent publication US12421222B2 (AUGUSTINE THERAPEUTICS, priority 2021, dated 2025)
